Experimental data published in patent US9598441B2, “Therapeutic compounds and methods” (Wayne State University, priority 2011, dated 2017).

Target: T1, Gst-APC-2 (685-754) (Homo sapiens, UniProt Q9UJX6)
T1 construct: immobilizing the Gst-APC-2 (685-754) peptide with Gst-beads; made in house; host or cells: E. coli BL-21 (DE3)
Assay: In vitro binding of SMIs, immobilized Gst-APC-2 pre-incubated with CFM
Conditions: WB with anti HA-tag
Description: The CFM-4 and 5 were separately dissolved in DMSO to obtain a stock of 20-50 mM. For in vitro binding experiments we utilized affinity-purified Gst-APC-2 (685-754) and His-TAT-HA-tagged A-epitope (WT) peptide. Ten nanogram of the His-TAT-HA-tagged A-epitope (WT) peptide was first allowed to bind with Ni-NTA beads (ProBond, InVitrogen), and then the reaction was incubated with DMSO (control), 100 μM CFM-4, or 100 μM CFM-5 for 30 min at RT. The reactions were then subjected to three washes with the binding buffer, followed by incubation with 10 ng of affinity-purified Gst-APC-2 (685-754) peptide for 30 min at RT. The reactions were washed again for three times with PBS, eluted and analyzed on a SDS-PAGE followed by western blotting (WB) with anti-Gst antibodies. A similar strategy was performed by immobilizing the Gst-APC-2 (685-754) peptide with Gst-beads. The beads were washed, incubated with DMSO or the CFMs, and the reactions washed again. The reactions were then allowed to incubate with affinity purified A-epitope peptide, and the complexes analyzed by SDS-PAGE followed by WB with anti HA-tag antibodies.

T1 sequence (Q9UJX6 685-754): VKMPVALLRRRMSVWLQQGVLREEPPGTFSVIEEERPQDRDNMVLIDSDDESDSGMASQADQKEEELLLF

binding of immobilized Gst-APC-2 (685-754) with A-epitope peptide after pre-incubation with compound: failed to abolish its binding
Structure (SMILES): O=C1N(Cc2ccccc2Cl)c2ccccc2C12NN=C(c1ccccc1)S2 (stereo not shown) [CFM-4, 1-(2-chlorobenzyl)-5′-phenyl-3′H-spiro[indoline-3,2′-[1,3,4]thiadiazol]-2-one]
